The nature of data set [1]: Soluble peptide degradation, Cells condition (LC-MS). It is filed as in vitro ADME, human. The note with it: human; for remaining at 24 h, 50 µM: Figure 3C, individually synthesized soluble peptide, N = 6. Put shortly: (§1)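 Pooled synthetic TAILS-derived peptides added to hUVEC or hMSC cultures (Cells) or cell-free conditioned media (Media); MMP-14 inhibitor NSC 405 020 at 10 µM final. Samples taken at 0 and 24 h, acidified, analysed by LC-MS; peak areas normalised to 50 µM βFβA6 internal standard, 24 h/0 h gives fraction remaining.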

The test system of another data set is hMSCs. Described as above. It is filed as in vitro ADME, human. The following applies: LC-MS. Put shortly: as §1
In data set [2] the test system is MMP-14. The data set is described as above. The format is in vitro ADME, human. The following applies: human. Put shortly:
as §1

Data set [3] in a line: Soluble peptide degradation, Media condition (cell-conditioned media, LC-MS). It is filed as in vitro ADME, human. An outline of the steps: (§2)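 Pooled peptide library added to medium conditioned by hUVECs or hMSCs with cells removed. Fraction remaining after 24 h measured by LC-MS (positive-ion ESI). Value is peptide peak area relative to 50 µM non-degradable βFβA6 internal standard.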

Assay in data set [4]: as above
The format is in vitro ADME, human. The following applies: for remaining at 24 h / remaining at 24 h, 50 µM: human. Put shortly: as §2

In a further data set the test system is hUVECs. The data set can be described thus: Soluble peptide degradation, Cells condition (LC-MS). The format is in vitro ADME, human. The following applies: Figure 3B heatmap; split-and-pool libraries KLVADX1X2ASAE in media on hUVECs; 24 h; LC-MS, ratio to βFβA6; N = 2. An outline of the steps:
as §1

In data set [5] the test system is T1, MMP-14.
T1 construct: purchased antibodies.com
The data set can be described thus: Peptide degradation with added exogenous recombinant MMP-14 (LC-MS). The note with it: human, cells or culture medium. It is filed as in vitro ADME. How it is done: To verify that MMP‐14 can degrade the KLVAD‐LM and PanMMP peptides, recombinant MMP‐14 was added to the different peptides, both in PBS and in the Cell and Media culture conditions (Figure 7 ). Peptides were incubated under three conditions: in fresh cell culture media (“Blank”), in media with cells present (“Cells”), and in cell‐conditioned media (“Media”). This was done for both hMSCs and hUVECs, and was also done with and without the addition of exogenous MMP.
The extent of peptide degradation was quantified for samples both with and without the addition of exogenous MMP‐14. […] Error bars indicate ± standard deviation, N = 3 with technical triplicates.
hUVECs (75000 per well) or hMSCs (36000 per well) were seeded into a 48 well plate, and 500 µL media was added to the wells. […] The peptide libraries were dissolved at a stock solution of 10 mM total peptide content. For libraries containing 38 peptides, 95 µL of the stock solution was added to each well; for libraries with 19 peptides, 47.5 µL was added to each well, and media was taken at 0 and 24 h. Add 4 µL of acetic acid to all collected media in the LC‐MS plates and store them in a −80 °C freezer to prevent further proteolytic degradation. From each sample, 10 µL of crude solution was introduced by the LC‐MS through a Thermo Scientific Vanquish LC System (Thermo Fisher Scientific), which outputted to a Thermo Scientific LTQ XL Linear Ion Trap Mass Spectrometer (Thermo Fisher Scientific). The sampled mixture was trapped on a column (ProntoSIL C18 AQ, 120 Å, 3 µm, 2.0 x 50 mm HPLC Column, PN 0502F184PS030, MAC‐MOD Analytical Inc.). The samples were loaded onto the column with a solvent containing acetonitrile/water, 5:95 (v/v) containing 1% acetic acid at a flow rate of 300 µL min^−1 and held for 1 min. The sample was then eluted from the column with a linear gradient of 5–40% Solvent B (1% acetic acid in acetonitrile) at the same flow rate for 5 min. This was followed by a 1 min ramp up to 100% Solvent B, where it was re‐equilibrated with Solvent A (1% acetic acid) to 5% solvent B over the course of 1 min and held there for 2 min. The column temperature was kept at a constant 29 °C, and the mass spectrometer was operated in positive ion mode. Using a Heated ESI, the Source Voltage was set to 4.1 kV, and the capillary temperature was 350 °C. For non‐library degradation studies, 2.5 µL of 10 mM peptide stock solution for each peptide was added.
To assess the activity of the conditioned media, the media were divided into two equal portions. One portion was used for a standard degradation study, while the other was cultured for an additional 24 h before the PanMMP and KLVADLMASAE were added. After 24 h of incubation, the media were collected for further analysis. To assess the impact of recombinant MMP‐14 on PanMMP and KLVADLMASAE, recombinant MMP‐14 (antibodies.com) was dissolved in the media at a concentration of 0.5 nM. The remaining steps followed the standard degradation study protocol.
For all degradation studies using soluble peptides, a non‐proteolytically degradable NH2‐βFβAβAβAβAβAβA‐amide (βFβA6) peptide, where βF is β‐phenylalanine and βA is β‐alanine, was added at a 50 µM concentration and used as an internal standard. Peptide degradation ratios were measured by LC‐MS and analyzed by Xcalibur. The relative concentrations of the peptide were calculated by the ratio of the peak area of the peptide and the peak area of βFβA6.

Where [6] appears, read: hUVECs in culture with fresh media (Cells condition), media on hUVECs, 24 h, LC-MS, ratio to βFβA6, read-out: Fraction of peptide remaining after 24 hours: hUVEC Cells.
Where [7] appears, read: with NSC 405 020 (MMP-14 inhibitor), Figure 3C, 50 µM peptide, media on hMSCs with MMP-14 inhibitor NSC 405 020 10 µM, 24 h, LC-MS, N = 6, read-out: Fraction of peptide remaining after 24 hours: hMSC +Inhibitor.
Where [8] appears, read: with NSC 405 020 (MMP-14 inhibitor), Figure 3C, 50 µM peptide, media on hUVECs with MMP-14 inhibitor NSC 405 020 10 µM, 24 h, LC-MS, N = 6, read-out: Fraction of peptide remaining after 24 hours: hUVEC +Inhibitor.
[9] abbreviates: human, hMSC-conditioned media without cells (Media condition), Figure 3B heatmap, split-and-pool libraries KLVADX1X2ASAE in hMSC-conditioned media without cells, 24 h, LC-MS, ratio to βFβA6, N = 2, read-out: Fraction of peptide remaining after 24 hours: hMSC Media.

SMILES strings stand for the structures. Like-named read-outs stand apart in the source and are kept apart here. Where a SMILES comes first, the peptide text is derived from it. [ ]: non-standard residue; d: D form. βAla = NCCC(=O)O

With `CC(=O)NCCC(=O)N[C@@H](CCCCN)C(=O)N[C@@H](CC(C)C)C(=O)N[C@H](C(=O)N[C@@H](C)C(=O)N[C@@H](CC(=O)O)C(=O)N1CCC[C@H]1C(=O)N[C@@H](Cc1ccc(O)cc1)C(=O)N[C@@H](C)C(=O)N[C@@H](CO)C(=O)N[C@@H](C)C(=O)N[C@@H](CCC(=O)O)C(=O)NCCC(N)=O)C(C)C` [KLVAD-PY] (Ac-[βAla]KLVADPYASAE[βAla]-NH2), the share remaining at 24 h in data set [1] (hMSCs in culture with fresh media (Cells condition), Figure 3B heatmap, split-and-pool libraries KLVADX1X2ASAE (19 or 38 peptides per library) in media on hMSCs, 24 h, LC-MS, ratio to βFβA6, N = 2, read-out: Fraction of peptide remaining after 24 hours: hMSC Cells) was found to be 56%; in data set [1] (hUVECs in culture with fresh media (Cells condition), Figure 3B heatmap, split-and-pool libraries KLVADX1X2ASAE in media on hUVECs, 24 h, LC-MS, ratio to βFβA6, N = 2, read-out: Fraction of peptide remaining after 24 hours: hUVEC Cells), 94%; in data set [3] (setting [9]), 81%; in data set [4] (hUVEC-conditioned media without cells (Media condition), Figure 3B heatmap, split-and-pool libraries KLVADX1X2ASAE in hUVEC-conditioned media without cells, 24 h, LC-MS, ratio to βFβA6, N = 2, read-out: Fraction of peptide remaining after 24 hours: hUVEC Media) it was 118%. The amount remaining at 24 h, 50 µM in data set [1] (setting [6]) is 88%; in the data set on MMP-14 [2] (setting [7]), 89%; in the data set with MMP-14 [2] (setting [8]), 100%; in data set [3] (human, hMSC-conditioned media without cells (Media condition), Figure 3C, individually synthesized soluble peptide, 50 µM, hMSC-conditioned media without cells, 24 h, LC-MS, ratio to βFβA6, N = 6, read-out: Fraction of peptide remaining after 24 hours: hMSC Media), 96%. In addition, the “Fraction of peptide remaining after 24 hours: hMSC Cells” value with hMSCs (Figure 3C, individually synthesized soluble peptide, 50 µM, media on hMSCs, 24 h, ratio to βFβA6, N = 6) came out at 0.52. In addition, the “Fraction of peptide remaining after 24 hours: hUVEC Media” value in data set [4] (Figure 3C, individually synthesized soluble peptide, 50 µM, hUVEC-conditioned media without cells, 24 h, LC-MS, ratio to βFβA6, N = 6) came out at 1.11.
For the molecule `CC(=O)NCCC(=O)N[C@@H](CCCCN)C(=O)N[C@@H](CC(C)C)C(=O)N[C@H](C(=O)N[C@@H](C)C(=O)N[C@@H](CC(=O)O)C(=O)N[C@@H](CC(N)=O)C(=O)N[C@@H](Cc1ccc(O)cc1)C(=O)N[C@@H](C)C(=O)N[C@@H](CO)C(=O)N[C@@H](C)C(=O)N[C@@H](CCC(=O)O)C(=O)NCCC(N)=O)C(C)C` [KLVAD-NY] (Ac-[βAla]KLVADNYASAE[βAla]-NH2), the share remaining at 24 h in data set [1] (hMSCs in culture with fresh media (Cells condition), Figure 2B heatmap, pooled TAILS-derived soluble peptides (Ac-βAla N-terminus, βAla-amide C-terminus) in media on hMSCs (36000 per well, 48 well plate, 500 µL), 24 h, LC-MS, ratio to βFβA6 internal standard, 24 h / 0 h, N = 5, read-out: Fraction of peptide remaining at 24 hours: hMSC Cells) worked out at 70%; in data set [1] (hUVECs in culture with fresh media (Cells condition), Figure 2B heatmap, pooled TAILS-derived soluble peptides in media on hUVECs (75000 per well, 48 well plate, 500 µL), 24 h, LC-MS, ratio to βFβA6 internal standard, 24 h / 0 h, N = 5, read-out: Fraction of peptide remaining at 24 hours: hUVEC Cells), 92%; in data set [3] (setting [9]) it was 84%; in data set [3] (human, Figure 2B heatmap, pooled TAILS-derived soluble peptides in 24 h hMSC-conditioned media without cells, 24 h, LC-MS, ratio to βFβA6 internal standard, 24 h / 0 h, N = 5, read-out: Fraction of peptide remaining at 24 hours: hMSC Media), 97%; in data set [4] (Figure 2B heatmap, pooled TAILS-derived soluble peptides in 24 h hUVEC-conditioned media without cells, 24 h, LC-MS, ratio to βFβA6 internal standard, 24 h / 0 h, N = 5, read-out: Fraction of peptide remaining at 24 hours: hUVEC Media), 100%. Moreover, the amount remaining at 24 h, 50 µM in data set [1] (hMSCs in culture with fresh media (Cells condition), media on hMSCs, 24 h, LC-MS, ratio to βFβA6, read-out: Fraction of peptide remaining after 24 hours: hMSC Cells) is 78%; in data set [1] (setting [6]) it was 96%; with MMP-14 [2] (setting [7]), 87%; in the data set with MMP-14 [2] (setting [8]), 98%; in data set [4] (hUVEC-conditioned media without cells (Media condition), Figure 3C, individually synthesized soluble peptide, 50 µM, hUVEC-conditioned media without cells, 24 h, LC-MS, ratio to βFβA6, N = 6, read-out: Fraction of peptide remaining after 24 hours: hUVEC Media), 102%. The “remaining after 24 h in the Cells condition for hMSCs” value in the data set with hMSCs (Figure 2B screen, 24 h) was 70%. Also, the “peptide remaining after 24 h, Cells condition, hMSCs” value in the data set with hMSCs (Figure 3C, 50 µM soluble peptide, N = 6) is reported as 78%. The “Fraction of peptide remaining after 24 hours: hUVEC Cells” value with hUVECs was determined as 0.91. The “Fraction of peptide remaining after 24 hours: hMSC Media” value in data set [3] (Figure 3C, individually synthesized soluble peptide, 50 µM, hMSC-conditioned media without cells, 24 h, LC-MS, ratio to βFβA6, N = 6) came out at 0.92. This molecule also came in with a metabolised at 24 h in data set [3] (human, Figure 2B screen, hMSC-conditioned media, 24 h, LC-MS) of less than 3%. The “degradation in Media condition” value in data set [4] (Figure 2B screen, hUVEC-conditioned media, 24 h, LC-MS) is on record as “less than 3%”. Moreover, in data set [4] (Figure 3B heatmap, split-and-pool libraries KLVADX1X2ASAE in hUVEC-conditioned media without cells, 24 h, LC-MS, ratio to βFβA6, N = 2), the “Fraction of peptide remaining after 24 hours: hUVEC Media” value is recorded as 0.98.
On to `CSCC[C@H](NC(=O)[C@H](CC(C)C)NC(=O)[C@H](CC(=O)O)NC(=O)[C@H](C)NC(=O)[C@@H](NC(=O)[C@H](CC(C)C)NC(=O)[C@H](CCCCN)NC(=O)CCNC(C)=O)C(C)C)C(=O)N[C@@H](C)C(=O)N[C@@H](CO)C(=O)N[C@@H](C)C(=O)N[C@@H](CCC(=O)O)C(=O)NCCC(N)=O` [KLVAD-LM] (Ac-[βAla]KLVADLMASAE[βAla]-NH2), for which the amount remaining at 24 h in data set [1] (cells or culture medium) worked out at 87%; in data set [1] (cells or culture medium, Fraction of peptide remaining after 24 hours: hMSC Cells), 39%. Further, the amount remaining at 24 h, 50 µM in the data set with MMP-14 [2] (cells or culture medium) turned out to be 100%; in the data set on MMP-14 [2] (cells or culture medium, Fraction of peptide remaining after 24 hours: hMSC +Inhibitor), 82%; in data set [3] (human, cells or culture medium), 97%; in data set [4] (cells or culture medium) it was 93%; in the data set on MMP-14 [5] (peptide remaining in hMSC conditioned media with added MMP‐14), 76%; in the data set with MMP-14 [5] (peptide remaining in hUVEC conditioned media with added MMP‐14), 69%. The “degraded across all Media conditions” value in data set [3] and in data set [4] was “less than 10%” throughout.

The values above are taken from article PMC12683216, “Using High‐Throughput Screening to Identify Crosslinking Peptides That Control Cell‐Mediated Matrix Degradation” (Advanced Healthcare Materials, 2025).
